Among the data in PubChem BioAssay (NCI) are GI50 and TGI values, retold here.

Holding throughout (assay): NCI-60 cell line screen, 48 h
For test [1], the system named is A549 NSCLC.
In test [2] the test system is ACHN renal.
Test [3] has as its system COLO 205 colon.
Test [4] relates to HCT-15 colon.
Test [5] relates to HOP-62 NSCLC.
For test [6], the system named is MOLT-4 leukemia.
The subject of test [7] is RXF 393 renal.
In test [8] the test system is SK-MEL-28 melanoma.
The test system of test [9] is SW-620 colon.
The subject of test [10] is RPMI-8226 leukemia.

SMILES strings stand for the structures.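 96-well plates; 48 h exposure; 5 concentrations. Endpoints by linear interpolation between flanking doses. Not reached: highest tested concentration assigned. The concentration for 50% growth inhibition is given as GI50. TGI denotes the concentration required for complete inhibition of growth.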 Where only a bound is given, the exact number is not on record here.

Turning to `CCC[CH2][Sn]([CH2]CCC)([O]C(=O)c1cccc(F)c1F)[O]C(=O)c1cccc(F)c1F`, the GI50 was 5.37 µM in test [1]; 1.28 µM in test [2]; 0.962 µM in test [3]; 1.25 µM in [4]; 2.94 µM in test [5]; 0.336 µM in test [6]. Besides, the GI50 is 0.321 µM in test [7], 0.933 µM in test [8] and 0.472 µM in [9]. The TGI in [1] stood at 17.5 µM; in test [2] it was 2.55 µM; in test [3], 2.13 µM; in [4], 2.51 µM; in [5], 4.5 µM; in test [6], 2.04 µM. The TGI turned out to be 1.22 µM in [7], 2.13 µM in [8] and 1.67 µM in test [9].
`CCN(CC)c1ccc2nc3ccc(N=Nc4ccc(O)cc4)cc3[n+](-c3ccccc3)c2c1`: the GI50 is 4.85 µM in test [1]; 4.1 µM in test [2]; 1.26 µM in test [3]; 6.87 µM in test [4]; 2.68 µM in test [5]; 3.85 µM in [10]. For the same compound, the GI50 in test [7] is 10.4 µM; in test [8], 5.88 µM; in [9], 2.24 µM. The TGI in test [1] is more than 100 µM; in test [2], 21.1 µM; in test [3], 3.1 µM; in test [4], more than 100 µM; in [5], 15.1 µM; in test [10], more than 100 µM. The TGI in test [7] stood at 24.8 µM; in test [8] it was 21.5 µM; in [9] it was 6.38 µM.
Consider `Clc1ccc(OCc2nnc3n2N=C(c2ccccc2)CS3)c(Cl)c1`, for which the TGI in [1], in [2], in test [4], in test [6], in test [7] and in test [8] was more than 100 µM throughout. Besides, in test [9], the TGI was more than 100 µM.
In the case of `COc1ccc2c(c1)[n+](=O)c(C(=O)CC(=O)C(=O)Nc1cccc(C)c1C)c(C)n2[O-]`, the TGI in test [1], in [2], in test [4], in test [5], in test [6] and in test [10] was more than 100 µM throughout. Also, the TGI in test [7], in [8] and in test [9] was more than 100 µM throughout.
As for `O=C1Nc2ccccc2/C1=C/c1cn(CC(O)Cn2cc(/C=C3\C(=O)Nc4ccccc43)c3ccccc32)c2ccccc12` (stereo not drawn), the GI50 was 1.51 µM in test [1]; 1.63 µM in test [2]; 1.77 µM in [4]; 1.41 µM in test [5]; 2.58 µM in [6]; 2.1 µM in test [10]. Besides, the GI50 in test [7] is 2.04 µM; in test [8], 1.77 µM; in test [9], 1.34 µM. For the same compound, the TGI turned out to be 3.21 µM in test [1]; 3.91 µM in test [2]; 3.71 µM in [4]; 3.06 µM in [5]; 7.42 µM in [6]; 5.41 µM in test [10]. Besides, the TGI was found to be 3.75 µM in test [7], 3.5 µM in test [8] and 3.48 µM in test [9].
For `CCN(CC)c1ccc(N=Nc2ccc(-c3nc4cccn(C)c-4n3)cc2)cc1`, the TGI stood at 25.6 µM in test [1]; 27.9 µM in test [3]; 21 µM in test [4]; 24.7 µM in [5]; 9.32 µM in [6]; 7.07 µM in [10]. Further, the TGI in test [7] is 11.8 µM; in test [9] it was 22.9 µM.
For the compound `c1ccc(C2CC(c3ccc4ccccc4c3)=Nc3ccccc3S2)cc1` (stereo not drawn), the TGI in test [1] is 38.8 µM; in test [2] it was 31.2 µM; in test [5] it was 38.2 µM; in test [6] it was more than 100 µM; in test [10], more than 100 µM; in test [7], 33.4 µM. Further, the TGI in [8] came to 33.1 µM; in test [9], 33.8 µM.
For `COc1cc2nc(-c3cccc4cccnc34)nc(NC3CCN(Cc4ccccc4)CC3)c2cc1OC`, the GI50 in test [1] is 0.56 µM; in test [2] it was 0.773 µM; in [4] it was 1.11 µM; in [5], 1.23 µM; in test [6], 0.325 µM; in [10] it was 1.6 µM. For the same compound, the GI50 was 1.82 µM in [8] and 0.509 µM in test [9]. Moreover, the TGI in test [1] worked out at 1.94 µM; in test [2], 2.08 µM; in test [4] it was 2.43 µM; in [5] it was 3.05 µM; in [6], 1.81 µM; in test [10] it was 4.54 µM. For the same compound, the figures for the TGI in [8] and in test [9] were 3.6 µM and 2.01 µM, respectively.
Consider `c1cc[c]([Sn]([O]c2cccc3cccnc23)([O]c2cccc3cccnc23)[c]2ccccc2)cc1`, for which the GI50 is 0.207 µM in test [2]; 1.07 µM in test [3]; 0.186 µM in test [4]; 5.26 µM in test [5]; 0.203 µM in test [6]. The TGI in test [2] was found to be 0.396 µM; in test [3], 2.28 µM; in test [4] it was 0.377 µM; in test [5], 17.9 µM; in test [6], 0.429 µM.
Consider `COc1ccc(-c2nc(N)c(C#N)c3c2CCOc2c-3ccc3ccccc23)cc1`, for which the GI50 in [1] is 28 µM; in test [2], 10.1 µM; in [3] it was 7.61 µM; in test [4], 59.4 µM; in [5] it was 20.8 µM; in [6], more than 100 µM. The GI50 in [7] was 1.6 µM; in test [8] it was 12.1 µM. The TGI is 76.7 µM in test [1]; 22.6 µM in test [2]; more than 100 µM in [3]; more than 100 µM in test [4]; 49.7 µM in test [5]; more than 100 µM in [6]. The TGI in test [7] was 31.1 µM; in [8], 79.1 µM.
